Results from EP4813979A1, “COMPOUND FOR EGFR PROTEIN DEGRADATION AND USE THEREOF” (TYK Medicines, Inc., priority 2023, dated 2025).

How the values were obtained:
[1] = system: A431; experiment: Cell anti-proliferation experiment (CTG); type: cell-based; conditions: Homo sapiens, A-431, 72 h, A431 (wild-type EGFR), class symbol
Description: (§1) H1975 has an EGFR: T790M/L858R double mutation, PC-9 has an EGFR exon 19 deletion, and HCC827 has an exon 19 deletion mutation. Baf3-19del- T790M -C797S (Baf3-DTC) is a stable Ba/F3 clone expressing exogenous EGFR gene bearing T790M, C797S, and […] triple amino acid mutations, purchased from KYinno. Baf3-L858R-T790M - C797S (Baf3-LTC) is a stable Ba/F3 clone expressing exogenous EGFR gene bearing […], T790M, and C797S triple mutations, purchased from KYinno. A549 is a wild-type EGFR, purchased from Nanjing Kebai Biotechnology. A431 is a wild-type EGFR, purchased from Shanghai Xinyu Biotechnology. CellCounting-Lite2.0, Trypsin EDTA, 37°C CO2 incubator, cell counter, EnVision Serial No. 1050454.
(§2) • A) Digested logarithmic phase cells with Trypsin EDTA, added culture medium to stop the reaction, and mixing well with a pipette to prepare a cell suspension. • B) Used Vi-cell to determine cell concentration, and prepared a suspension of 15,000-25,000 cells per milliliter according to the experimental purpose and cell characteristics. • C) After prepared the cell suspension, mixed it gently and added 100 µL to each well, so that the cell density to be tested is 1500-2500 per well.
(§3) • A) Weighed approximately 2 mg the compound and calculated the required volume of DMSO according to the formula: Compound mass (mg) * Compound purity (%) / Compound molecular weight * 1000. • B) Placed the inoculated cell culture plate into an incubator and incubated for about 24 hours. Then added compounds of varying concentrations. • C) Diluted the 10mM compound stock solution to […] with culture medium, and added the […] compound solution to the second column of the deep well plate in sequence, and added […] culture medium containing 0.5% DMSO to the third to eleventh columns. • D) Gradient dilution: Taked 125 µL solution from the second column and added it to the third column, mix well; then taked 125 µL solution from the third column and added it to the fourth column, repeated this operation until the tenth column. • E) Used a multichannel pipette, aspirated 25 µL the compound from the deep-well plate and added it to a 96-well culture plate. Repeated this process three times for each compound on the 96-well plate. This will ultimately create a concentration gradient of up to 10,000 nM at a 1:4 ratio on the 96-well plate.
(§4) • A) The effects of the compound were observed under an inverted microscope after the 96-well plate was incubated in an incubator for 72 hours. • B) Added 25 µL CTG solution to each well, placed on a shaker for 10 minutes, and read the […] of each well.
(§5) Calculate the % Cell Viability using the following formula: %Cell Viability = 100% × (Lum_Sample−Lum_LC)/(Lum_HC−Lum_LC) [formula] • Lum_HC: Cell readings from the 0.1% DMSO control group • Lum_Sample: Cell readings with added compound • Lum_LC: Blank culture medium reading
(§6) The IC50 value was obtained by curve fitting using GraphPad Prism 8 software.

[2] = system: A549; experiment: Cell anti-proliferation experiment (CTG); type: cell-based; conditions: Homo sapiens, A549, 72 h, A549 (wild-type EGFR), class symbol
Description: as §1, §2, §3, §4, §5, §6

[3] = system: Baf3-19del- T790M -C797S (Baf3-DTC); experiment: Cell anti-proliferation experiment (CTG); type: cell-based; conditions: 72 h, class symbol
Description: as §1, §2, §3, §4, §5, §6

[4] = system: Baf3-L858R-T790M - C797S (Baf3-LTC); experiment: Cell anti-proliferation experiment (CTG); type: cell-based; conditions: 72 h, class symbol
Description: as §1, §2, §3, §4, §5, §6

[5] = system: H1975; experiment: Cell anti-proliferation experiment (CTG); type: cell-based; conditions: Homo sapiens, NCI-H1975, 72 h, H1975 (EGFR T790M/L858R), class symbol
Description: as §1, §2, §3, §4, §5, §6

[6] = system: HCC827; experiment: Cell anti-proliferation experiment (CTG); type: cell-based; conditions: Homo sapiens, HCC827, 72 h, HCC827 (exon 19 deletion), class symbol
Description: as §1, §2, §3, §4, §5, §6

[7] = system: PC-9; experiment: Cell anti-proliferation experiment (CTG); type: cell-based; conditions: Homo sapiens, PC-9, 72 h, PC-9 (EGFR exon 19 deletion), class symbol
Description: as §1, §2, §3, §4, §5, §6

[8] = target: EGFR in Baf3-19del-T790M-C797S (Homo sapiens, UniProt P00533, C797S/DEL746-750/T790M); experiment: EGFR PROTAC HTRF experiment (total EGFR degradation); type: cell-based; conditions: Baf3-DTC, incubated 16 hours, HTRF total EGFR; for DC50: read-out: Baf3-DTC DC50; for Dmax: read-out: Baf3-DTC Dmax
Chain of EGFR in Baf3-19del-T790M-C797S (P00533 with tags, fused parts or gaps DEL746-750/T790M/C797S): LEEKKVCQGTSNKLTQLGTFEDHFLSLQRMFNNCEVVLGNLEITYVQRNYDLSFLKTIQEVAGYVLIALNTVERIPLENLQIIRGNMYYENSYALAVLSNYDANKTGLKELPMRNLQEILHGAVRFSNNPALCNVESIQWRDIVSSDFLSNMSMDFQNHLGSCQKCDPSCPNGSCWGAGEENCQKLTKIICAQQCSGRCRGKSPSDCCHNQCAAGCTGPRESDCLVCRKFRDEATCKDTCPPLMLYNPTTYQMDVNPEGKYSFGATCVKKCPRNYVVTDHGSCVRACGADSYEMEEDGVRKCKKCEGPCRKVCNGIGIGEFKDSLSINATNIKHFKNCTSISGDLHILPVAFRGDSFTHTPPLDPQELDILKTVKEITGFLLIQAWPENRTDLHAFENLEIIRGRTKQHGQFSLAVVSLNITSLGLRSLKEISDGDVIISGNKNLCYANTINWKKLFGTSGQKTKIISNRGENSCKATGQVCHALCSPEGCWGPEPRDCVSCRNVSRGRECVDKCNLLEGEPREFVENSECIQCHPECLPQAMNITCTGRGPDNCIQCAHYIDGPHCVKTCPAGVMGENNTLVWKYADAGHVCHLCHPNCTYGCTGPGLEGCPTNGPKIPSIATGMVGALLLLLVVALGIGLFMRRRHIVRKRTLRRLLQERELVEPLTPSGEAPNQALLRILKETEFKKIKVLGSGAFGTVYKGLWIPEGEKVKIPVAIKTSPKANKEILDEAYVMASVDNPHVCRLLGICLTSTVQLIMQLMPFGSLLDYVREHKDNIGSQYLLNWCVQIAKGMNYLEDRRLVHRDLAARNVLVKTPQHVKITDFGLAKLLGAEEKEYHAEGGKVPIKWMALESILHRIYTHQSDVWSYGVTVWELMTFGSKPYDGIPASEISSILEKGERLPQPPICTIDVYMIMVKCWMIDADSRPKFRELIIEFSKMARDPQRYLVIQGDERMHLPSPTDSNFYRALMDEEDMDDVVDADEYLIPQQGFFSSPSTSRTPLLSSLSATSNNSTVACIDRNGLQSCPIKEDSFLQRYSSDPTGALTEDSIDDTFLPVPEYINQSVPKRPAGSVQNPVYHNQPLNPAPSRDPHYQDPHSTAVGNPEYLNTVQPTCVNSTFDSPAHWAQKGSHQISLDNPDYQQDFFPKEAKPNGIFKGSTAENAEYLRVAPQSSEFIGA
Procedure: (§7) [table] Among them, B[…] -C797S (abbreviated as Baf3-DTC) is a stable Ba/F3 clone expressing exogenous EGFR gene bearing T790M, C797S and […] triple amino acid mutations, purchased from KYinno; Baf3-L858R-T790M - C797S (abbreviated as Baf3-LTC) is a stable Ba/F3 clone expressing exogenous EGFR gene bearing […], T790M, C797S triple mutations, purchased from KYinno. [table] [table] Dilutded Eu and d2 antibodies 2μl per well with detection buffer 20-fold. Then mixed the two antibody vials thoroughly. [table] Opened EnVision , locate the HTRF program, configured the board, and then read […]. The fitted curve, DC50 and Dmax of this compound could be generated using GraphPad Prism .

[9] = target: EGFR in Baf3-L858R-T790M-C797S (Homo sapiens, UniProt P00533, C797S/L858R/T790M); experiment: as above; type: cell-based; conditions: Baf3-LTC, incubated 16 hours, HTRF total EGFR; for DC50: read-out: Baf3-LTC DC50; for Dmax: read-out: Baf3-LTC Dmax
Chain of EGFR in Baf3-L858R-T790M-C797S (P00533 25-1210 T790M/C797S/L858R): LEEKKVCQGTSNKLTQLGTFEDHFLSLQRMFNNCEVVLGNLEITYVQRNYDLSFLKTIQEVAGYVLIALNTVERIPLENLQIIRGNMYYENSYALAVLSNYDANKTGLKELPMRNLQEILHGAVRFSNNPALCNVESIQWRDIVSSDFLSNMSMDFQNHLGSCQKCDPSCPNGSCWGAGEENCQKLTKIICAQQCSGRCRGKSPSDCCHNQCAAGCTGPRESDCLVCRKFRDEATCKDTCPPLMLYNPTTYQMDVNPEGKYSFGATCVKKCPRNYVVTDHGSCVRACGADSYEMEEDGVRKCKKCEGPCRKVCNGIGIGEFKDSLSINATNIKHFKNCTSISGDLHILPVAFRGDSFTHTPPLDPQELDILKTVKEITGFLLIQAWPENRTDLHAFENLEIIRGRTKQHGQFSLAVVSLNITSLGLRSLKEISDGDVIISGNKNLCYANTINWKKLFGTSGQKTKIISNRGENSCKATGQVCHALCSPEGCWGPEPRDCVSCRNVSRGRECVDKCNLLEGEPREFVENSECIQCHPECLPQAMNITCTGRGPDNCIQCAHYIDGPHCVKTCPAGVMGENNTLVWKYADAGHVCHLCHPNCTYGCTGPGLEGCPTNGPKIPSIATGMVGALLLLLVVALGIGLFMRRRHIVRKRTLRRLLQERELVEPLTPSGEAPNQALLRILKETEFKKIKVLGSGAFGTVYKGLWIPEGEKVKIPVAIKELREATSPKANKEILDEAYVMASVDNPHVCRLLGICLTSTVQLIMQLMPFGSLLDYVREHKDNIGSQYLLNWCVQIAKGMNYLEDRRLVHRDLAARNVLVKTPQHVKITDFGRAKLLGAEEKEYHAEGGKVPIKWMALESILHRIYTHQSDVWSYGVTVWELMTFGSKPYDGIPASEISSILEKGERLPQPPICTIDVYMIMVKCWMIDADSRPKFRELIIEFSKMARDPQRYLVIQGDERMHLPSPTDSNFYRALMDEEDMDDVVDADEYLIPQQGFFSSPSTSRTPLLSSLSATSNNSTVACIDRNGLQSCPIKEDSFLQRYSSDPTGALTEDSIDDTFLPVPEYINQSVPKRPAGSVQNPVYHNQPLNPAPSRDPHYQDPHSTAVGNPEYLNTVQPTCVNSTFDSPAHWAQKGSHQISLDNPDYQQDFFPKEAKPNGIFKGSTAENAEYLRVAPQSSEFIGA
Procedure: as §7

[10] = Pharmacokinetic tests in male SD rats; type: in vivo; conditions: oral gavage (po), 10 mg/kg, plasma
Procedure: Three healthy adult male SD rats, 6-8 weeks old, weighing 200-300 grams.
EDTA-Na2 anticoagulant, weighed 11.2 g EDTA-Na2 and placed it in a reagent bottle. Added 100 mL physiological saline and shaked to dissolve completely. After preparation, dispensed into 1.5 mL centrifuge tubes, each containing approximately 20 µL, for whole blood sample collection.
Accurately weighed approximately 10 mg the sample to be tested, added 10% of the converted total volume of DMSO to dissolve it, and then slowly added 90% of the total volume of 0.5% MC solvent while stirring. Sonicated and vortex to mix thoroughly to obtain a solution of the preparation that is considered to be homogeneous, with a concentration of 1 mg/mL. Prepared fresh immediately before use.
Piped 0.2 mL the sample into a 1.5 mL centrifuge tube and store at -80°C for analysis of the concentration of the drug solution.
Animals were housed in rat cages and fasted for at least 10 hours starting the day before the experiment, but water was allowed. On the day of the experiment, each animal was weighed and marked on its tail. Blank blood samples were collected before drug administration. Blood was collected via tail vein.
• Route of administration: Oral gavage (po); • Dosage concentration: 1 mg/ml; • Dosage: 10 mg/kg; • Dosage volume: 10 mL/kg; • Procedure: Hold the rat upright with your left hand wearing a bite-proof glove, insert the gavage needle into the throat through the mouth, and insert the needle when feeling no obvious resistance. Then inject the drug into the stomach.
Whole blood (0.1-0.2 ml) was collected from test animals at 0.5 h, 1 h, 2 h, 4 h, 6 h, 8 h, 12 h, and 24 h after drug administration. The samples were placed in EDTA-Na 2 anticoagulant tubes, inverted 3-4 times to mix, and centrifuged at 4°C, 2000 g for 5 min to separate the supernatant plasma. The plasma was promptly transferred to -80°C for storage until analysis. Blood was collected via tail vein.
A quantitative detection method for the analyte was established using Shimadzu liquid chromatography and Triple Quad™ 6500+AB mass spectrometry. The concentration of the parent drug in plasma was analyzed. The analytical results were controlled for variation using quality control samples, with the accuracy of the quality control samples expected to be between 80% and 120%.
The main pharmacokinetic parameters were calculated using a non-compartmental model in Winnonlin Phoenix software. These parameters included the area under the curve (AUC(0-t) and AUC(0-∞)), elimination half-life (T1/2), maximum plasma concentration (Cmax ), and time to reach maximum plasma concentration (Tmax).The results are shown in Table 3.

Row | Structure (SMILES) | IC50 [1] | IC50 [2] | IC50 [3] | IC50 [4] | IC50 [5] | IC50 [6] | IC50 [7] | DC50 [8] | Dmax [8] | DC50 [9] | Dmax [9] | HL [10] | AUC(0-inf) ([10]; rat) | AUC(0-t) ([10]; rat) | Cmax ([10]; rat) | MRT last ([10]; rat) | Tmax ([10]; rat)
1 | CCc1cc(Nc2ncc(Br)c(Nc3ccccc3P3(=O)CCCC3)n2)c(OC)cc1N1CC2(CCN(C(=O)CN3CCC(c4cc5c(cc4F)c(N4CCC(=O)NC4=O)nn5C)C(F)(F)C3)CC2(F)F)C1 (stereo not drawn) [TB-010] | > 1000 nM | > 1000 nM | 10 to 100 nM | 10 to 100 nM | < 10 nM | 10 to 100 nM | 100 to 1000 nM | < 10 nM | 70 to 100% | < 10 nM | 70 to 100% | 3.59 h | 5800 ng·h/mL | 5730 ng·h/mL | 482 ng/mL | 6.6 h | 4 h
2 | CCc1cc(Nc2ncc(Cl)c(Nc3ccccc3C(=O)NC)n2)c(OC)cc1N1CCN(CCN2CCC(c3cc4c(cc3F)c(N3CCC(=O)NC3=O)nn4C)CC2)CC1 [TD-001] | > 1000 nM | 10 to 100 nM | 10 to 100 nM | 10 to 100 nM | < 10 nM | < 10 nM | 100 to 1000 nM | 100 to 1000 nM | 50 to 70% | 10 to 100 nM | 50 to 70% |  |  |  |  |  | 
3 | CCc1cc(Nc2ncc(Cl)c(Nc3ccccc3P(C)(C)=O)n2)c(OC)cc1N1CCN(C(=O)CN2CCC(c3cc4c(cc3F)c(N3CCC(=O)NC3=O)nn4C)C(F)(F)C2)[C@@H](C)C1 (stereo partly drawn) [TA-025] |  |  |  |  |  |  |  | 10 to 100 nM | 70 to 100% | 10 to 100 nM | 70 to 100% |  |  |  |  |  | 
4 | CCc1cc(Nc2ncc(Cl)c(Nc3ccc(OC)cc3C(C)=O)n2)c(OC)cc1N1CCN(C(=O)CN2CCC(c3cc4c(cc3F)c(N3CCC(=O)NC3=O)nn4C)C(F)(F)C2)CC1 (stereo not drawn) [TA-017] |  |  |  |  |  |  |  | 100 to 1000 nM | 70 to 100% | 100 to 1000 nM | 70 to 100% |  |  |  |  |  | 
